Laboratory results published in patent publication US20210284691A1, “CBX8 CHROMDOMAIN INHIBITORS AND THE USES THEREOF” (Purdue Research Foundation, priority 2019, published 2021).
Square brackets hold non-standard residues; d marks the D form. Primed or numbered codes have the meaning given here. Ends that are not written are not given here. Peptide text beside a SMILES is read from it. * marks the point of attachment. Isoxazole3carbonyl(5-Me) = Cc1cc(C(=O)*)no1; Tyr(3-Cl) = N[C@@H](Cc1ccc(O)c(Cl)c1)C(=O)O; Lys(Et2) = CCN(CC)CCCC[C@H](N)C(=O)O; PEG4′ = not defined here; NH(propargyl) = C#CCN*

What was measured:
CBX8 ChD = biological target: T1, CBX8 ChD (Homo sapiens, UniProt Q9HC52); assay: Direct fluorescence polarization (FP) binding assay; conditions: from Kd values
T1 construct: CBX chromodomain constructs; host or cells: E. coli BL21 CodonPlus RIL
T1 sequence (Q9HC52 11-69 limits assumed): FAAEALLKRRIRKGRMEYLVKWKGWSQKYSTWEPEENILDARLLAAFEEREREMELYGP
Protocol: Bacterial growth was completed at 37° C. in LB media to OD600=2.0, followed by reducing the temperature to 16° C. over 30-60 min and induced with 1 mM IPTG for 16 h. Cells were collected by centrifugation at 6000 rpm for 20 min and resuspended in ChD binding buffer (20 mM Tris, pH 8, 150 mM NaCl, 0.01% Tween-20, 20 mM imidazole) with 1.0 mM PMSF. Bacteria pellets were stored at −80° C. until needed. Pellets were thawed on ice for 10 min in ChD binding buffer, and shaked at 4° C. supplemented with 100 μg/mL lysozyme, 1 mg/mL CHAPS and 1 mM PMSF, for 30 min. Cells were subsequently lysed by sonication (15 W, 30 s on, followed by 30 s off, twice, followed by 20 W for 1 min). The solubilized fraction was collected by centrifugation at 15000 rpm for 40 min at 4° C. Meanwhile, Ni-NTA Agarose resin (QIAGEN, Venlo, Netherlands) was washed with H2O and equilibrated with ChD binding buffer. The soluble fraction was incubated with the prewashed Ni-NTA agarose resin at 4° C. for 2 h. The resin was then washed 3× with ChD purification buffer (20 mM Tris, pH 8, 150 mM NaCl, 0.01% Tween-20, 1 mM PMSF). Proteins were eluted by the addition of 0.5 M imidazole to ChD purification buffer. The elution was diluted with 30% glycerol, flash frozen, and stored at −80° C. until needed. Protein purity was assessed by SDS-PAGE and concentration was determined by the Pierce 660 kit (Thermo Scientific).
Direct fluorescence polarization (FP) binding assay of PSL hits against PcG CBX ChDs. FP assays were conducted as above with slight modifications. Alkyne peptides described above were conjugated with a fluorescein group(5-/6-FAM) through copper catalyzed click reaction as previously described. The FAM-labeled peptide was kept constant at 100 nM. The CBX ChD proteins were titrated by 2-fold series dilutions in the assays. The highest protein concentrations, at which FAM-peptide was completely bound, used for each CBX in the direct binding assays depends on the binding affinity of the peptides. Assays were performed for each peptide in four replicates.

[1] = biological target: T2, CBX8 binding to chromatin (Homo sapiens, UniProt Q9HC52); assay: ChIP-qPCR in Hs68 fibroblast cells; type: cell-based; conditions: 120 μM
T2 construct: endogenous in cells; host or cells: Hs68 fibroblasts (A16); HEK293T (A19); K562 (A23)
T2 sequence (Q9HC52 1-389): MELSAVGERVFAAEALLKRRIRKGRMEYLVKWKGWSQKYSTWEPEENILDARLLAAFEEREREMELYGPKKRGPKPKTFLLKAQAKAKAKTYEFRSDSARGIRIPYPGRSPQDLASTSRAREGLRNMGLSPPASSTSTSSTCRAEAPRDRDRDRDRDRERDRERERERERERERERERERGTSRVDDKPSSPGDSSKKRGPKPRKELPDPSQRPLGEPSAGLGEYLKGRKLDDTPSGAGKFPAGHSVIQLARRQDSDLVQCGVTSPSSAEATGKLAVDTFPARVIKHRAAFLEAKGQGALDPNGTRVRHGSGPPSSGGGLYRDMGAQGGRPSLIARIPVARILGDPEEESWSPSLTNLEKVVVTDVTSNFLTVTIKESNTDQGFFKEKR
Protocol: ChIP: Hs68 cells were seeded at 4×10^6 in a 10 cm cell culture plates 16 hours prior to treatment. […] ChIP was performed as described in Connelly et al., 2018. Birefly, cells were washed with PBS and fixed on the plate with CiA Fix buffer (50 mM HEPES, pH 8.0, 1 mM EDTA, 0.5 mM ETGA, 100 mM NaCl) and 1% formaldehyde for 10 min at room temperature. Crosslinking was quenched with 0.125 M glycine for 5 min at 4° C. Cells were washed once with PBS and lifted off the plate then resuspended in CiA NP Rinse buffer 1 (50 mM HEPES pH 8.0, 140 mM NaCl, 1 mM EDTA, 10% glycerol, 0.5% NP-40, 0.25% Triton X) for 10 min. Cells were pelleted at 1200×g for 5 min at 4° C. The supernatant was removed, and the cells were resuspended in CiA NP rinse buffer 2 (10 mM Tris pH 8.0, 1 mM EDTA, 0.5 mM EGTA, 200 mM NaCl). Cells were collected by centrifugation, 1200×g for 5 min. Supernatant was removed and the cells were washed twice with shearing buffer (0.1% SDS, 1 mM EDTA, 10 mM Tris HCl, pH 8.0). Cells were resuspended in shearing buffer and sonicated for 7 min with the probe (Branson). Lysate was centrifuged at 21,000×g for 15 min to remove debris. Supernatant was collected and pre-cleared overnight with Protein A/G magnetic beads (Pierce). […]
qPCR: qPCR was performed on the isolated ChIP DNA using SYBR master mix (Thermo) and run on the BioRad CFX thermo cycler. […] Enrichment was determined by percent input. […]

CBX8 regulated gene = assay: Gene expression of a CBX8 regulated gene in HEK293T cells; type: cell-based, Human; conditions: high compound concentrations
THP1 cells = conditions: 50 μM
Protocol: Cells were grown for 72 h before trypsinized and counted. Cell suspension was homogenized by gentle pipetting and counted using Countess II (#AMQAF1000, Life Technologies). […] At day 6, 25 percent of cells in each well were split and transferred to new wells to avoid over-confluency, and media was replaced with fresh compounds in new media. The cell viability assay was extended to 12 days, with cell counting and fresh compound replenishment at day 3, 6, 9.
Luminescence was normalized to DMSO-treated groups. The IC50 was calculated using the “log[inhibitor] vs. the normalized response-variable slope” equation in GraphPad Prism 7.

LNCaP_NED cells = assay: LNCaP_NED cell proliferation, viability and morphology; type: cell-based; conditions: enzalutamide treatment
Description: FIG. 12A). Neuroendocrine differentiation (NED) of prostate cancer induced by androgen deprivation. Representative pictures of LNCaP cells treated with normal media or charcoal-stripped serum (CSS) media for 6 days to induce neuroendocrine differentiation (LNCaP_NED). FIG. 12B). Transcriptional fold changes of KLK3/TMPRSS2/ENO2/CHGA were quantified normalized to control gene YWHAZ upon CSS media treatment for 6 or 9 days. FIG. 12C). Western blotting of CBX paralogs in LNCaP and LNCaP_NED cells generated from 14-day CSS treatment. FIG. 12D). Cell proliferation of LNCaP_NED following 5 days incubation with 2 or 10 μM SW2_152F. DMSO was used as negative control. FIG. 12E). LNCaP_NED cells were treated with 10 μM SW2_152F for 24 h-96 h. Cell morphology pictures were captured starting from 24 h. Average cell size were plotted at 24 h or 48 h for both DMSO group and compound treated group. FIG. 12F). LNCaP_NED cells were treated with 10 μM or 50 μM SW2_152F for 48 hours. Transcriptional fold change of genes (KLK3/TMPRSS2/AR/CBX2) were normalized to YWHAZ in LNCaP_NED cells with SW2_152F treatment or DMSO. FIG. 12G). LNCaP cells were treated with DMSO. LNCaP_NED cells were treated with DMSO, 10 μM GSK343 or 10 μM SW2_152F for 48 hours. Whole cell lysates were extracted for western blotting. FIG. 12H). LNCaP_NED cells were treated with DMSO or 10 μM SW2_152F for 4 hours before harvest. Binding of H3K27me3 and CBX2 at specific genomic sites (KLK3/TMPRSS2, e: enhancer, p: promoter) were evaluated using chromatin immunoprecipitation-qPCR. For all experiments in the figure, error bars represent SEM n=3 biological replicates, p-values were calculated using two-tailed Student's t-test, *=p<0.05, **=p<0.01, ***=p<0.001, ****=p<0.0001.
Cellular Activity of CBX2 Inhibitor in Neuroendocrine Differentiation of Prostate Cancer—Generation of a Prostate Cancer Neuroendocrine Differentiation (NED) System. To generate an in vitro model for NED, we cultured the androgen-sensitive prostate cancer cell line LNCaP in charcoal-stripped serum (CSS), which lacks androgens as well as other steroids. Upon treatment with CSS media, LNCaP cells adopted morphological characteristics of neuroendocrine-like cells (LNCaP_NED), which include dominant nucleus, limited cytoplasm, dendrites (FIG. 12A) and a decreased proliferation rate. To monitor transcriptional changes during androgen deprivation, we quantified the changes in expression of two NED markers (ENO2 and CHGA) and two AR target genes (KLK3 and TMPRSS2) by RT-qPCR during 15 days of androgen deprivation. […] To verify that LNCaP_NED cells become resistant to AR antagonists, we tested the effects of the AR antagonist enzalutamide (ENZA) on cell proliferation.

LNCaP cells = assay: LNCaP cell proliferation; type: cell-based; conditions: ENZA treatment
Description: To generate an in vitro model for NED, we cultured the androgen-sensitive prostate cancer cell line LNCaP in charcoal-stripped serum (CSS), which lacks androgens as well as other steroids. […] To verify that LNCaP_NED cells become resistant to AR antagonists, we tested the effects of the AR antagonist enzalutamide (ENZA) on cell proliferation.

endogenous CBX proteins = assay: Peptide pull-down / chemoprecipitation from HEK293T lysates; type: binding, Human
Protocol: 2×10^7 HEK293T cells were seeded in a 15 cm cell culture dish overnight. Next day, media was removed and cells were washed with PBS. Cells were lysed with 5 ml Buffer A (25 mM HEPES, 5 mM KCl, 25 mM MgCl2, 0.05 mM EDTA, 10% glycerol, 0.1% NP-40, plus protease inhibitors) on ice for 15 minutes. The nuclei were pelleted and re-suspended in IP buffer (25 mM Tris, 300 mM NaCl, 1 mM EDTA, 1% NP-40, plus protease inhibitors) for 15 minutes. The sample were spun down at 15,000 rpm at 4° C. for 5 min and lysates were transferred to separate tubes. Protein concentrations were determined by Pierce 660 nm kit (Thermo Scientific). Streptavidin M-270 Dynabeads (Solulink, San Diego, Calif.) was washed three times with Pulldown Binding Buffer (50 mM Tris, 150 mM NaCl, 0.5 mM DTT). 10× of biotinylated peptides SW2_110A-B, as well as biotinylated H3K27me3 (21-44) and biotinylated H3 (21-44), were incubated with […] pre-equilibriumed beads at 4° C. for an hour. After biotin-peptide being immobilized on resin, extra unbound peptides were removed by 3× washing, and 200 μg of nuclear lysate supernatant was added to each washed and immobilized biotinylated peptide (biotin-H3, biotin-H3K27me3, SW2_110A-B). The mixture was rotated at 4° C. for 2 hours. Then, the depleted lysate was removed and the beads were washed with Pulldown Binding Buffer 3× at 4° C. […] ImageJ was employed to quantitate the protein bands.

`C#CCNC(=O)[C@H](CO)NC(=O)[C@H](CCCCN(CC)CC)NC(=O)[C@@H](NC(=O)[C@@H](NC(=O)[C@H](Cc1ccc(O)c(Cl)c1)NC(=O)c1cc(C)on1)C(C)C)[C@@H](C)CC` [KED97L] ({Isoxazole3carbonyl(5-Me)}-[Tyr(3-Cl)]VI[Lys(Et2)]S-{NH(propargyl)}; C-terminus assumed) was tested, and the “selectivity for CBX8 ChD over CBX7 ChD” value (CBX8 ChD) was 20 fold, the “CBX8 binding at a known target, ChIP-qPCR” value [1] was “completely unaffected” and the “gene expression changes of a CBX8 regulated gene” value (CBX8 regulated gene) was “only slightly affected”. For the same compound, the THP1 cell viability (THP1 cells) was “only slightly affected”.

For `CNC(=O)c1ccc(N2C(=S)N(c3ccc(C#N)c(C(F)(F)F)c3)C(=O)C2(C)C)cc1F` [enzalutamide, reference compound], the “LNCaP_NED proliferation with AR antagonist” value (LNCaP_NED cells) was “no further decrease in proliferation” and the “LNCaP proliferation with AR antagonist” value (LNCaP cells) was “highly decreased proliferation”.

For “SW2_152F-B: biotinylated SW2_152F (SEQ ID NO: 29) (PIKS-{PEG4′-biotin}; also: Pro1 alpha-amino modified, Lys3 side chain amino modified)”, the “enrichment of endogenous CBX proteins by biotinylated ligand, immunoblot” value (endogenous CBX proteins) was “robustly enriched CBX2 and CBX8 with limited enrichment of other paralogs”.
